From US10815264B2, “Nucleotides for the treatment of cancer” (IDENIX PHARMACEUTICALS LLC, priority 2015, dated 2020)
Like-named read-outs stand apart in the source and are kept apart here.

Experiments:
Assay in all cases: In vitro inhibition, CellTiter-Glo (CTG) assay, 72 hr exposure
Format in all cases: cell-based
A498 = test system: A498
Experimental: (§1) Cells were grown in RPMI-1640 supplemented with L-Glutamine and 10% FBS of the following cell lines:
(§2) CCRF-CEM; CCRF-CEM-cytarabine resistant; HL-60; K562; CFPAC-1; MiaPACA-2; BxPC-3; PANC-1; HepG2; MDA-MB-231; HCT-116; A498; and NCI-H69
(§3) 18, 96 well plates of each cell line were seeded with the optimized number of cells per well in a total volume of 50 μL per well. The plates were left overnight. Plate wells were seeded with 100 μL media for media control. The following day, cells were exposed to test compounds as described below. At the same time as drug exposure, a CTG assay was conducted on the 18th plate for the 0 hr count.
(§4) The compounds were added to cells and medium already on the plate to give desired final concentrations. 50 μL media were added to cell control wells, and 50 μL of mix added to vehicle control wells. 10 μM Doxorubicin was added to appropriate wells. Cells exposed to test compound were incubated at 37° C. for 72 hr followed by a CTG assay.
(§5) At the end of the 72 hr exposure period, plates were removed for a CellTiter-Glo (CTG) assay from a 37° C., 5% CO2 incubator and placed on the bench at room temperature for 30 mins. 100 μL of CellTiter-Glo reagent was added and mixed for 2 mins, followed by a further 10 min incubation at room temperature. Luminescence was recorded using Synergy 4.0.

PANC-1 = details: PANC-1, 72 hr
Experimental: as §1, §2, §3, §4, §5

HepG2 = test system: HepG2
Experimental: as §1, §2, §3, §4, §5

[1] = test system: CCRF-CEM-cytarabine resistant
Experimental: as §1, §2, §3, §4, §5

MDA-MB-231 = details: MDA-MB-231, 72 hr
Experimental: as §1, §2, §3, §4, §5

HCT-116 = test system: HCT-116
Experimental: as §1, §2, §3, §4, §5

BxPC-3 = test system: BxPC-3
Experimental: as §1, §2, §3, §4, §5

CCRF-CEM = test system: CCRF-CEM
Experimental: as §1, §2, §3, §4, §5

K562 = details: K562, 72 hr
Experimental: as §1, §2, §3, §4, §5

CFPAC-1 = test system: CFPAC-1
Experimental: as §1, §2, §3, §4, §5

NCI-H69 = test system: NCI-H69
Experimental: as §1, §2, §3, §4, §5

MiaPACA-2 = test system: MiaPACA-2
Experimental: as §1, §2, §3, §4, §5

HL-60 = test system: HL-60
Experimental: as §1, §2, §3, §4, §5

[2] = Homo sapiens, MIA PaCa-2, MiaPACA-2, 72 hr

Structure (SMILES)	IC50 [1] [µM]	IC50 (K562; Homo sapiens) [µM]	IC50 (NCI-H69; NCI-H69, 72 hr) [µM]	IC50 (PANC-1; Homo sapiens) [µM]	IC50 (MDA-MB-231; Homo sapiens) [µM]	IC50 (BxPC-3; BxPC-3, 72 hr) [µM]	IC50 (CCRF-CEM) [µM]	IC50 (HepG2; Homo sapiens, HepG2, 72 h) [µM]	IC50 (CCRF-CEM; Homo sapiens, 72 h) [µM]	IC50 (MiaPACA-2; [2]) [µM]	IC50 (HL-60; Homo sapiens, HL-60, 72 h) [µM]	IC50 (HCT-116; Homo sapiens, HCT-116, 72 h) [µM]	IC50 (BxPC-3; Homo sapiens, BXPC-3, 72 h) [µM]	IC50 (NCI-H69; Homo sapiens, NCI-H69, 72 h) [µM]	IC50 (A498; A498, 72 hr) [µM]	IC50 (HepG2; HepG2, 72 hr) [µM]	IC50 (HCT-116; HCT-116, 72 hr) [µM]	IC50 (MiaPACA-2; MiaPACA-2, 72 hr) [µM]	IC50 (A498; Homo sapiens, A498, 72 h) [µM]	IC50 (CFPAC-1; Homo sapiens, CFPAC-1, 72 h) [µM]	also measured
CC(C)OC(=O)[C@H](C)NP(=O)(OC[C@H]1S[C@@H](n2ccc(N)nc2=O)[C@@H](O)[C@@H]1O)Oc1ccccc1 (single isomer, unassigned) [Compound 101b (diastereoisomer 2)]	1 to 10	10 to 100	10 to 100	–	–	–	–	–	–	–	–	–	–	–	10 to 100	1 to 10	1 to 10	1 to 10	–	–	IC50 (PANC-1): 10 to 100 µM; IC50 (MDA-MB-231): 10 to 100 µM; IC50 (BxPC-3; Homo sapiens, BxPC-3, 72 hr): 10 to 100 µM; IC50 (CCRF-CEM; Homo sapiens): < 1 µM; IC50 (CFPAC-1; Homo sapiens, CFPAC-1, 72 hr): 10 to 100 µM; IC50 (HL-60; Homo sapiens, HL-60, 72 hr): 1 to 10 µM
CC(C)OC(=O)[C@H](C)NP(=O)(OC[C@H]1S[C@@H](n2ccc(N)nc2=O)[C@@H](O)[C@@H]1O)Oc1ccccc1 (single isomer, unassigned) [Compound 101b (diastereoisomer 1)]	10 to 100	–	–	10 to 100	10 to 100	10 to 100	< 1	–	–	–	–	–	–	–	–	10 to 100	10 to 100	10 to 100	–	–	IC50 (A498; Homo sapiens, A498, 72 hr): 10 to 100 µM; IC50 (K562): 10 to 100 µM; IC50 (CFPAC-1; CFPAC-1, 72 hr): 10 to 100 µM; IC50 (NCI-H69; Homo sapiens, NCI-H69, 72 hr): 10 to 100 µM; IC50 (HL-60; HL-60, 72 hr): 1 to 10 µM
CC(=O)OC[C@H](C)NP1(=O)OC[C@H]2S[C@@H](n3ccc(N)nc3=O)[C@@H](O)[C@@H]2O1 (single isomer, unassigned) [Compound 108b (diastereoisomer 1)]	10 to 100	10 to 100	–	10 to 100	10 to 100	–	–	10 to 100	10 to 100	10 to 100	10 to 100	10 to 100	10 to 100	10 to 100	–	–	–	–	10 to 100	10 to 100	–
COC(=O)COP(=O)(N[C@@H](CC(C)C)C(=O)OC)OC[C@H]1S[C@@H](n2ccc(N)nc2=O)[C@@H](O)[C@@H]1O (single isomer, unassigned) [Compound 104b (diastereoisomer 1)]	10 to 100	10 to 100	–	10 to 100	10 to 100	–	–	–	< 1	10 to 100	1 to 10	10 to 100	10 to 100	10 to 100	–	1 to 10	–	–	10 to 100	10 to 100	–

The next lines start with results.

IC50 [1] [µM]	IC50 (K562; Homo sapiens) [µM]	IC50 (NCI-H69; NCI-H69, 72 hr) [µM]	IC50 (PANC-1; Homo sapiens) [µM]	IC50 (MDA-MB-231; Homo sapiens) [µM]	IC50 (BxPC-3; BxPC-3, 72 hr) [µM]	IC50 (CCRF-CEM) [µM]	IC50 (HepG2; Homo sapiens, HepG2, 72 h) [µM]	IC50 (CCRF-CEM; Homo sapiens, 72 h) [µM]	IC50 (MiaPACA-2; [2]) [µM]	IC50 (HL-60; Homo sapiens, HL-60, 72 h) [µM]	IC50 (HCT-116; Homo sapiens, HCT-116, 72 h) [µM]	IC50 (BxPC-3; Homo sapiens, BXPC-3, 72 h) [µM]	IC50 (NCI-H69; Homo sapiens, NCI-H69, 72 h) [µM]	Structure (SMILES)	IC50 (A498; A498, 72 hr) [µM]	IC50 (HepG2; HepG2, 72 hr) [µM]	IC50 (HCT-116; HCT-116, 72 hr) [µM]	IC50 (MiaPACA-2; MiaPACA-2, 72 hr) [µM]	IC50 (A498; Homo sapiens, A498, 72 h) [µM]	IC50 (CFPAC-1; Homo sapiens, CFPAC-1, 72 h) [µM]	also measured
1 to 10	1 to 10	10 to 100	10 to 100	10 to 100	10 to 100	–	1 to 10	< 1	1 to 10	< 1	–	–	–	Nc1ccn([C@@H]2S[C@H](COP(=O)(NCc3ccccc3)OCc3ccc([N+](=O)[O-])o3)[C@@H](O)[C@@H]2O)c(=O)n1 (single isomer, unassigned) [Compound 103 (diastereoisomer 1)]	10 to 100	–	10 to 100	–	–	–	IC50 (CFPAC-1; CFPAC-1, 72 hr): 10 to 100 µM
10 to 100	10 to 100	–	10 to 100	10 to 100	–	–	1 to 10	1 to 10	1 to 10	1 to 10	10 to 100	10 to 100	10 to 100	Nc1ccn([C@@H]2S[C@H](COP(=O)(O)NCc3ccccc3)[C@@H](O)[C@@H]2O)c(=O)n1 [Compound 107, [(2R,3S,4S,5R)-5-(4-amino-2-oxo-pyrimidin-1-yl)-3,4-dihydroxy-tetrahydrothiophen-2-yl]methoxy-N-benzyl-phosphonamidic acid]	–	–	–	–	10 to 100	10 to 100	–
10 to 100	–	10 to 100	–	–	10 to 100	10 to 100	–	–	–	–	–	–	–	CC(C)(C)SSCCOP(=O)(NCc1ccccc1)OC[C@H]1S[C@@H](n2ccc(N)nc2=O)[C@@H](O)[C@@H]1O (single isomer, unassigned) [Compound 105 (diastereoisomer 2)]	10 to 100	10 to 100	10 to 100	1 to 10	–	–	IC50 (PANC-1): 10 to 100 µM; IC50 (MDA-MB-231): 10 to 100 µM; IC50 (K562): 10 to 100 µM; IC50 (CFPAC-1; CFPAC-1, 72 hr): 10 to 100 µM; IC50 (HL-60; HL-60, 72 hr): 10 to 100 µM
10 to 100	10 to 100	1 to 10	10 to 100	10 to 100	–	1 to 10	10 to 100	–	1 to 10	–	10 to 100	10 to 100	–	CC(C)(C)SSCCOP(=O)(NCc1ccccc1)OC[C@H]1S[C@@H](n2ccc(N)nc2=O)[C@@H](O)[C@@H]1O (single isomer, unassigned) [Compound 105 (diastereoisomer 1)]	–	–	–	–	10 to 100	10 to 100	IC50 (HL-60; HL-60, 72 hr): 1 to 10 µM
10 to 100	10 to 100	–	10 to 100	10 to 100	–	–	10 to 100	10 to 100	10 to 100	10 to 100	10 to 100	10 to 100	10 to 100	Cn1c(COP(=O)(NCc2ccccc2)O[C@H]2[C@H](O)[C@H](n3ccc(N)nc3=O)S[C@@H]2CO)cnc1[N+](=O)[O-] (mixture of isomers) [Compound 106b (mixture of diastereoisomers), 4-amino-1-[(2R,3S,4S,5R)-4-[(benzylamino)-[(3-methyl-2-nitro-imidazol-4-yl)methoxy]phosphoryl]oxy-3-hydroxy-5-(hydroxymethyl)tetrahydrothiophen-2-yl]pyrimidin-2-one]	–	–	–	–	10 to 100	10 to 100	–
